Measured values taken from patent publication US20240327415A1, “Multicomponent Complexes, Including Salts, Crystalline Forms, and Hydrates and Solvates of ENT1 Inhibitors” (iTeos Belgium SA, priority 2023, published 2024).

Assays:
Format in all cases: physicochemical
[1] = pH solubility studies in buffers and biorelevant media (Example 16); set-up: key: A: amorphous; Crystalline Form 10 mono(hydrogen sulfate); conditions: pH 6.8 (Phosphate), 24 h
Description: Example 16—pH Solubility Studies—(1) Crystalline Form 2 Compound 1 di(hydrogen sulfate) trihydrate, (2) Crystalline Form 3 Compound 1 di(hydrogen sulfate), and (3) Crystalline Form 4 Compound 1 mono(hydrogen sulfate): pH solubility studies were carried out on the prepared crystalline Form 2 Compound 1 di(hydrogen sulfate) trihydrate, crystalline Form 3 Compound 1 di(hydrogen sulfate) and crystalline Form 4 Compound 1 mono(hydrogen sulfate) in the following media: (1) HCl/KCl, pH 1.2; (2) Acetate, pH 4.5; (3) Phosphate, pH 6.8; (4) FaSSIF; (5) FeSSIF; and (6) FaSSGF. Slurries of the hydrogen sulfate forms were prepared in the appropriate medium and stirred at 25° C. For the experiments in the buffer media, the pH of the slurry samples was measured and adjusted as required after 1 hour and 23 hours of the slurrying. Additional solid was added where dissolution was observed post-adjustment. The pH of the samples in the biorelevant media was measured at the 23 hour timepoint. No pH adjustment was made for the biorelevant media. After a total of 24 hours of slurrying, the mother liquors were extracted via centrifugation, and the concentrations and solution purity were determined by HPLC. The residual solids were isolated and analyzed by XRPD and are shown in FIG. 77, FIG. 78, and FIG. 79. The assessment was repeated for some of the samples, where required.

[2] = Variable Humidity X-Ray Powder Diffraction (VH-XRPD)
Description: In the examples below, VH-XRPD analysis was carried out on a Philips X'Pert Pro Multipurpose diffractometer equipped with a humidity chamber. The samples were scanned between 4 and 36° 2θ using Cu K radiation (α1λ=1.54060 Å; α2=1.54443 Å; β=1.39225 Å; α1: α2 ratio=0.5; most, if not all, B radiation is removed from the beam using an X-ray mirror) running in Bragg-Brentano geometry (step size 0.008° 2θ) using 40 kV/40 mA generator settings. Measurements were carried out from 2-90% RH, with a final measurement taken at 40% RH.
VH-XRPD analysis was carried out on a Philips X'Pert Pro Multipurpose diffractometer equipped with a humidity chamber. The samples were scanned between 4 and 36° 2θ using Cu K radiation (α1 λ=1.54060 Å; α2=1.54443 Å; β=1.39225 Å; α1:α2 ratio=0.5; most, if not all, β radiation is removed from the beam using an X-ray mirror) running in Bragg-Brentano geometry (step size 0.008° 2θ) using 40 kV/40 mA generator settings. Measurements were carried out from 6-90% relative humidity (RH), with a final measurement taken at 40% RH.

[3] = hydration mapping studies (slurries at different water activities, Example 17)
Description: Example 17—Hydration Mapping Studies-Crystalline Form 2 Compound 1 di(hydrogen sulfate) trihydrate, Crystalline Form 3 Compound 1 di(hydrogen sulfate), and Blend: The effects of different water activities on crystalline Form 2 Compound 1 di(hydrogen sulfate) trihydrate, crystalline Form 3 Compound 1 di(hydrogen sulfate) and a blend of the two were investigated. The “blend” was prepared by mixing crystalline Form 2 Compound 1 di(hydrogen sulfate) trihydrate and crystalline Form 3 Compound 1 di(hydrogen sulfate) in a 1:1 ratio. To the vials containing the required solid material, the appropriate solvent system was added to form slurries. The slurry samples were stirred at the required temperatures during and after the solvent addition. Where dissolution was observed post-solvent addition, additional solid was added to re-saturate the sample. After stirring at the required temperature for 48 hours, the residual solids left in the vials were analyzed by XRPD to assess the solid forms. The analyzed samples were then dried on the XRPD plate under reduced pressure at 40° C. for 24 hr. The dried samples were analyzed by XRPD.

[4] = Variable Temperature X-Ray Powder Diffraction (VT-XRPD); set-up: key: Crystalline Form 3 di(hydrogen sulfate); Crystalline Form 9 di(hydrogen sulfate); Melt/Amorphous
Description: (§1) In the examples below, VT-XRPD analysis was carried out on a Philips X'Pert Pro Multipurpose diffractometer equipped with a temperature chamber. The samples were scanned between 4 and 36° 2θ using Cu K radiation (α1 λ=1.54060 Å; α2=1.54443 Å; β=1.39225 Å; α1: α2 ratio=0.5; most, if not all, B radiation is removed from the beam using an X-ray mirror) running in Bragg-Brentano geometry (step size 0.008° 2θ) using 40 kV/40 mA generator settings. Measurements were carried out from ambient temperature to an upper limit of 250° C., with a final measurement taken after cooling.
(§2) VT-XRPD analysis was carried out on a Philips X'Pert Pro Multipurpose diffractometer equipped with a temperature chamber. The samples were scanned between 4 and 36° 2θ using Cu K radiation (α1 λ=1.54060 Å; α2=1.54443 Å; β2=1.39225 Å; α1:α2 ratio=0.5; most, if not all, β radiation is removed from the beam using an X-ray mirror) running in Bragg-Brentano geometry (step size 0.008° 2θ) using 40 kV/40 mA generator settings. Measurements were carried out from ambient temperature to an upper limit of 250° C., with a final measurement taken after cooling.

[5] = as above; set-up: key: Crystalline Form 2 di(hydrogen sulfate) trihydrate; Crystalline Form 5 di(hydrogen sulfate); PC: Poorly Crystalline; conditions: second Heating, hold 30 min
Description: as §1, §2

[6] = second Heating, 150° C., hold 30 min
[7] = second Heating, 160° C., hold 30 min

COc1cc(C(=O)O[C@@H]2CCCOc3cc(cc(OC)c3OC)C(=O)NCCCN3CCCN(CC2)CC3)cc(OC)c1OC.O=S(=O)(O)O
XRPD of residual solids ([1]; 25° C.): A

COc1cc(C(=O)O[C@@H]2CCCOc3cc(cc(OC)c3OC)C(=O)NCCCN3CCCN(CC2)CC3)cc(OC)c1OC.O=S(=O)(O)O.O=S(=O)(O)O [crystalline Form 3 Compound 1 di(hydrogen sulfate)]
VH-XRPD: Conv. To Form 6→Form 2 at [2]: Form 2 at ≥70% RH
VH-XRPD: input form retained at [2]: at 10-60% RH
relative humidity range in which peaks of crystalline Form 6 Compound 1 di(hydrogen sulfate) are observed in addition [2]: 70-80 % RH
relative humidity range in which the form is retained (VH-XRPD) [2]: 2-60 % RH
relative humidity at which conversion to crystalline Form 2 Compound 1 di(hydrogen sulfate) trihydrate is observed ([2]; Form 3: after extended exposure): ≥ 80 % RH
solid form by XRPD after slurrying ([3]; solvent systems with aw=0.1, 48 hours): retained
solid form by XRPD after slurrying ([3]; solvent systems with aw=0.9, 48 hours): Conversion to crystalline Form 2 Compound 1 di(hydrogen sulfate) trihydrate
XRPD of residual solids ([1]; attempt 1, 25° C.): A
XRPD of residual solids ([1]; attempt 2, 25° C.): A
VT-XRPD Results ([4]; Cooling, 30° C., hold 10 min): 9
VT-XRPD Results ([4]; Heating, 70° C., hold 30 min): 9
VT-XRPD Results ([4]; Heating, 90° C., hold 30 min): 9
VT-XRPD Results ([4]; Heating, 105° C., hold 30 min): 9
VT-XRPD Results ([4]; second Heating, 120° C., hold 30 min): 9
VT-XRPD Results ([4]; second Heating, 130° C., hold 30 min): 9
VT-XRPD Results ([4]; second Heating, 140° C., hold 30 min): 9
VT-XRPD Results [4, 6]: 9
VT-XRPD Results [4, 7]: 9 and Melt

CCCN1CCNCCCNC(=O)c2cc(OC)c(OC)c(c2)OCCC[C@@H](OC(=O)c2cc(OC)c(OC)c(OC)c2)CC1
VH-XRPD: Conv. To Form 5 at [2]: 5 at 6% RH
VH-XRPD: input form retained at [2]: at 10-80% RH
VH-XRPD Results ([2]; Desorption, 6% RH, hold 60 min): 5, PC
solid form by XRPD after slurrying ([3]; acetonitrile:water (aw=0.1) at 50° C., 48 hours): conversion to crystalline Form 6 Compound 1 di(hydrogen sulfate)
solid form by XRPD after slurrying ([3]; the rest of the samples, 48 hours): consistent with crystalline Form 2 Compound 1 di(hydrogen sulfate) trihydrate
VT-XRPD Results [4, 6]: Melt
VT-XRPD Results [4, 7]: Melt
VT-XRPD Results ([5]; 120° C.): 5
VT-XRPD Results ([5]; 130° C.): 5
